Test results from US20140370067A1, “Method and applicator for the perioperative disinfection of medical instruments to be inserted through non-natural openings” (priority 2012, published 2014).

Test: Effectiveness and irritation of lower octenidine concentration in gel formulation (statement in description)
Details: concentration of 0.05% octenidine, compared with common 0.1%

CCCCCCCCN=c1ccn(CCCCCCCCCCn2ccc(=NCCCCCCCC)cc2)cc1 [octenidine, 1,1′-(1.1 O-decandiyl) to [4-(octylamino)pyridinium]-dichloride]
effectiveness: sufficiently good effectiveness | irritation: lower irritation
